Five molecules from patent publication US8143273B2, “Quinolizidine and indolizidine derivatives” (Hoffman-La Roche Inc., priority 2010, dated 2012) can be followed below.

For this assay, the target named is T1, mGlyT-1b (Mus musculus, UniProt P28571).
T1 construct: host or cells: Flp-In CHO
T1 sequence (P28571 1-651 isoform P28571-2): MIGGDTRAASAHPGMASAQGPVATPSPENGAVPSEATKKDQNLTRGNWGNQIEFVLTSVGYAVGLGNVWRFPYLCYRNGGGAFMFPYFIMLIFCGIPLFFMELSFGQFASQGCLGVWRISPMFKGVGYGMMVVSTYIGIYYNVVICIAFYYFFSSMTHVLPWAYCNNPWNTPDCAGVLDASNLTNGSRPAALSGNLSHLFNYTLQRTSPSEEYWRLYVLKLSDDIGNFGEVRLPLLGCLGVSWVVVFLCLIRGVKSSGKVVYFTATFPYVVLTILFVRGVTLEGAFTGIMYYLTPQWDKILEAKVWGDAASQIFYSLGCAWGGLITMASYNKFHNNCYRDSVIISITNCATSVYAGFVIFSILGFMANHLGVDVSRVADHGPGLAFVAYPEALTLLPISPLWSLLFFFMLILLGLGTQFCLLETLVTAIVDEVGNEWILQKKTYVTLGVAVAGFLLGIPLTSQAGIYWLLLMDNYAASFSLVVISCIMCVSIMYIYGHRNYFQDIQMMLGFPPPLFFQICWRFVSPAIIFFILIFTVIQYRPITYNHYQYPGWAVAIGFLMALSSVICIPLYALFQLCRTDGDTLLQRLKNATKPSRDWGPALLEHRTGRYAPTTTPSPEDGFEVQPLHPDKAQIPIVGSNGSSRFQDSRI
In words: Glycine uptake inhibition assay (mGlyT-1b). Type of assay: cell-based. Conditions: [3H]-glycine uptake in Flp-In CHO cells transfected with mGlyT-1b cDNA. As to the method: DMEM complete medium: Nutrient mixture F-12 (Gibco Life-technologies), fetal bovine serum (FBS) 5%, (Gibco life technologies), Penicillin/Streptomycinl % (Gibco life technologies), Hygromycin 0.6 mg/ml (Gibco life technologies), Glutamine 1 mM Gibco life technologies)
Uptake buffer (UB): 150 mM NaCl, 10 mM Hepes-Tris, pH 7.4, 1 mM CaCl2, 2.5 mM KCl, 2.5 mM MgSO4, 10 mM (+) D-glucose.
Flp-In™ CHO (Invitrogen Cat no R758-07) cells stably transfected with mGlyTlb cDNA.
Glycine uptake inhibition assay (mGlyT-1b)
On day 1 mammalian cells, (Flp-In™ CHO), transfected with mGlyT-1b cDNA, were plated at the density of 40,000 cells/well in complete F-12 medium, without hygromycin in 96-well culture plates. On day 2, the medium was aspirated and the cells were washed twice with uptake buffer (UB). The cells were then incubated for 20 min at 22° C. with either (i) no potential competitor, (ii) 10 mM non-radioactive glycine, (iii) a concentration of a potential inhibitor. A range of concentrations of the potential inhibitor was used to generate data for calculating the concentration of inhibitor resulting in 50% of the effect (e.g. IC50, the concentration of the competitor inhibiting glycine uptake of 50%). A solution was then immediately added containing [^3H]-glycine 60 nM (11-16 Ci/mmol) and 25 μM non-radioactive glycine. The plates were incubated with gentle shaking and the reaction was stopped by aspiration of the mixture and washing (three times) with ice-cold UB. The cells were lysed with scintillation liquid, shaken 3 hours and the radioactivity in the cells was counted using a scintillation counter.
`COc1cc(C(F)(F)F)cc(SC)c1C(=O)N[C@]1(c2ccccc2)CCCN2CCCC[C@@H]21` (racemic) [Example 1, 2-Methoxy-6-methylsulfanyl-N-((1S,R; 9aR,S)-1-phenyl-octahydro-quinolizin-1-yl)-4-trifluoromethyl-benzamide] displayed an IC50 of 80 nM. This counts as double-digit nanomolar.

`COc1cc(C(F)(F)F)cc(SC)c1C(=O)N[C@]1(c2ccccc2)CCCN2CCC[C@@H]21` (racemic) [Example 2, 2-Methoxy-6-methylsulfanyl-N-((8S,R; 8aR,S)-8-phenyl-octahydro-indolizin-8-yl)-4-trifluoromethyl-benzamide] registered an IC50 of 25 nM.

For `COc1cc(C(F)(F)F)cc(SC)c1C(=O)NC1(c2ccccc2)CCC2CCCN2C1` (single isomer, unassigned; diastereoisomer 1) [Example 3, 2-Methoxy-6-methylsulfanyl-N-(6-phenyl-octahydro-indolizin-6-yl)-4-trifluoromethyl-benzamide (diastereoisomer 1)], the IC50 amounted to 17 nM. This IC50 and that of the molecule before are within 1.5-fold of each other. For `COc1cc(C(F)(F)F)cc(SC)c1C(=O)NC1(c2ccccc2)CCC2CCCN2C1` (single isomer, unassigned; diastereoisomer 2) [Example 4, 2-Methoxy-6-methylsulfanyl-N-(6-phenyl-octahydro-indolizin-6-yl)-4-trifluoromethyl-benzamide (diastereoisomer 2)] the value was 13 nM; for `COc1cc(C(F)(F)F)cc(SC)c1C(=O)NC1(c2ccccc2)CCC2CCCCN2C1` (centres unmarked) [Example 5, 2-Methoxy-6-methylsulfanyl-N-(3-phenyl-octahydro-quinolizin-3-yl)-4-trifluoromethyl-benzamide], 28 nM.
